# Laboratory results from US20180099931A1 (AbbVie S.à.r.l., priority 2016, published 2018).
# Where two headings read alike, the source gives them in different places.
# Molecular target: T1, F508delCFTR (Homo sapiens, UniProt P13569, DEL508-508)
# T1 construct: expressed in transfected cells; host or cells: CFBE41o- human lung-derived epithelial cells (CFBE4lo-F508delCFTR-HRP), doxycycline-inducible
# Assay: Cell Surface Expression-Horse Radish Peroxidase (CSE-HRP) Assay;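 on Maximum % activity (with co-corrector): co-corrector and positive control are both the same reference corrector at 2 µM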;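 on Maximum % activity (without co-corrector): percent of the 2 µM on-plate positive control corrector response above DMSO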
# Format: cell-based
# Settings: for Emax / Maximum % activity (with co-corrector): maximum at any tested concentration, normalized to on-plate positive control; for Emax: read-out: Maximum % activity (without co-corrector)
# [1] = test compound without co-corrector
# [2] = test compound without co-corrector, read-out: EC50 (without co-corrector)
# [3] = with co-corrector (2 μM of 3-[(2R,4R)-4-({[1-(2,2-difluoro-1,3-benzodioxol-5-yl)cyclopropyl]carbonyl}amino)-7-methoxy-3,4-dihydro-2H-chromen-2-yl]benzoic acid)
# [4] = with co-corrector (2 μM of 3-[(2R,4R)-4-({[1-(2,2-difluoro-1,3-benzodioxol-5-yl)cyclopropyl]carbonyl}amino)-7-methoxy-3,4-dihydro-2H-chromen-2-yl]benzoic acid), read-out: EC50 (with co-corrector)
# T1 sequence (P13569 with tags, fused parts or gaps DEL508-508): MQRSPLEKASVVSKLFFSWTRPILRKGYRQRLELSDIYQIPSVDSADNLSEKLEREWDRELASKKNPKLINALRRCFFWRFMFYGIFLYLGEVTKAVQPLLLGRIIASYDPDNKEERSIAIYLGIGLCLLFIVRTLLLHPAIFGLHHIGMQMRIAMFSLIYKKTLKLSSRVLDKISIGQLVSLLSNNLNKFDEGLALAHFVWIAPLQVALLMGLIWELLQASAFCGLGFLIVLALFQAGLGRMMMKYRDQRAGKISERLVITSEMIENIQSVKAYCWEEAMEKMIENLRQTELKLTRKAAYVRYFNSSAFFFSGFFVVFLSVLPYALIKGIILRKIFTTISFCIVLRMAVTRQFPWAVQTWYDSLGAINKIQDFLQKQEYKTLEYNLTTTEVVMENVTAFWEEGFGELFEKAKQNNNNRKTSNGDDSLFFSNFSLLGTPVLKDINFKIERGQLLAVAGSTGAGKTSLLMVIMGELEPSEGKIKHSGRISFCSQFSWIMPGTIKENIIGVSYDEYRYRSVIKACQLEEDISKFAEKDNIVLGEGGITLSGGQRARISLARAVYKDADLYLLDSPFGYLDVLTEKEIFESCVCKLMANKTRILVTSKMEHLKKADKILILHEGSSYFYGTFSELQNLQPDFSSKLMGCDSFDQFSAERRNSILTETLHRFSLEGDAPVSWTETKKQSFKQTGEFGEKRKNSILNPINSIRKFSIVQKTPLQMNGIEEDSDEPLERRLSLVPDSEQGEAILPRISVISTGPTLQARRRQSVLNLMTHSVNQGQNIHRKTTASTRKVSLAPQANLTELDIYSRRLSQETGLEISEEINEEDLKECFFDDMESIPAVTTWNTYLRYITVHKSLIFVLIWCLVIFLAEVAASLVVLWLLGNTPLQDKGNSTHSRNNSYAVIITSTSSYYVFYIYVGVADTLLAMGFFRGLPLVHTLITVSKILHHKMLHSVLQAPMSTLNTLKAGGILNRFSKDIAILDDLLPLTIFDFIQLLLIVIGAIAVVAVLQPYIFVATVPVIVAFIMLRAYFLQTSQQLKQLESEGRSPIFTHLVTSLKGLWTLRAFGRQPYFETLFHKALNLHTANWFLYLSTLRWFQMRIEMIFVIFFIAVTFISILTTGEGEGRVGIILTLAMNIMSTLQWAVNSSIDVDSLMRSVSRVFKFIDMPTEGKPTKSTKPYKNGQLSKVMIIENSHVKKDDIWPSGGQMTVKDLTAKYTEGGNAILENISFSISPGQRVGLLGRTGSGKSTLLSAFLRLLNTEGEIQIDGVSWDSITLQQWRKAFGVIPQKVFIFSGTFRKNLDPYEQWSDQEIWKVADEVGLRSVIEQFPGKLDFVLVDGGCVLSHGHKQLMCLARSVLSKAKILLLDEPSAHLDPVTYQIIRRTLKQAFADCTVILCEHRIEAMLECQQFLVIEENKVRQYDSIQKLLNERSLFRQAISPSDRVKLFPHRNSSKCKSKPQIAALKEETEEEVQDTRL
Compound,Emax [1] [%],EC50 [2] [nM],Maximum % activity (with co-corrector) [3],EC50 [4] [nM]
COc1ccc(C(F)(F)F)cc1CN[C@H]1[C@H](C(C)(C)C)[C@@H](C(=O)O)N(C(=O)C(Oc2ccc(Cl)cc2)C(C)C)[C@H]1c1ccccc1 (some centres unmarked) [II-399],100 to 200,< 1000,+++ (≥350),< 1000
COc1ccc(C2(C#N)CC2)cc1CN[C@H]1[C@H](C(C)(C)C)[C@@H](C(=O)O)N(C(=O)C2CCCCC2)[C@H]1c1ccccc1 [II-400],100 to 200,1000 to 10000,+++ (≥350),1000 to 10000
COc1ccc(C(C)(C)C)cc1CN[C@H]1[C@H](C(C)(C)C)[C@@H](C(=O)O)N(C(=O)C2CCC(C)(C)C2)[C@H]1c1ccccc1 (some centres unmarked) [II-401],> 200,1000 to 10000,+++ (≥350),< 1000
COc1ccc(C(C)(C)C)cc1CN[C@H]1[C@H](C(C)(C)C)[C@@H](C(=O)O)N(C(=O)C2COc3c(cccc3OC)C2)[C@H]1c1ccccc1 (some centres unmarked) [II-402],> 200,1000 to 10000,+++ (≥350),< 1000
COc1cnc(C2CC3CCC2C3)cc1CN[C@H]1[C@H](C(C)(C)C)[C@@H](C(=O)O)N(C(=O)C2CCCCC2)[C@H]1c1ccccc1 (some centres unmarked) [II-403],100 to 200,1000 to 10000,+++ (≥350),1000 to 10000
COc1cnc(C2CCCCC2)cc1CN[C@H]1[C@H](C(C)(C)C)[C@@H](C(=O)O)N(C(=O)C2CCCCC2)[C@H]1c1ccccc1 [II-404],< 100,1000 to 10000,+++ (≥350),1000 to 10000
COc1ncc(-c2ccccc2F)cc1CN[C@H]1[C@H](C(C)(C)C)[C@@H](C(=O)O)N(C(=O)C2CCCCC2)[C@H]1c1cccnc1N(C)C [II-405],> 200,1000 to 10000,+++ (≥350),1000 to 10000
COc1ncc(-c2ccc(F)cc2F)cc1CN[C@H]1[C@H](C(C)(C)C)[C@@H](C(=O)O)N(C(=O)C2CCCCC2)[C@H]1c1cccnc1N(C)C [II-406],100 to 200,< 1000,+++ (≥350),< 1000
COc1cccc(OC)c1CN[C@H]1[C@H](C(C)(C)C)[C@@H](C(=O)O)N(C(=O)C2CCCCC2)[C@H]1c1ccccc1 [II-407],100 to 200,1000 to 10000,+++ (≥350),1000 to 10000
COc1ccc(C(F)(F)F)nc1CN[C@H]1[C@H](C(C)(C)C)[C@@H](C(=O)O)N(C(=O)C2CCCCC2)[C@H]1c1ccccc1 [II-408],100 to 200,1000 to 10000,+++ (≥350),1000 to 10000
COc1ncc(-c2ccc(F)cc2C)cc1CN[C@H]1[C@H](C(C)(C)C)[C@@H](C(=O)O)N(C(=O)C2CCCCC2)[C@H]1c1cccnc1N(C)C [II-409],100 to 200,1000 to 10000,+++ (≥350),< 1000
COc1ncc(-c2ccc(C)cc2)cc1CN[C@H]1[C@H](C(C)(C)C)[C@@H](C(=O)O)N(C(=O)C2CCCCC2)[C@H]1c1cccnc1N(C)C [II-410],100 to 200,< 1000,+++ (≥350),< 1000
COc1ccc(C(C)(C)C)cc1CN[C@H]1[C@H](C(C)(C)C)[C@@H](C(=O)O)N(C(=O)C2=C(F)CCCC2)[C@H]1c1ccccc1 [II-411],> 200,1000 to 10000,+++ (≥350),< 1000
COc1ccc(C(C)(C)C)cc1CN[C@@H]1[C@@H](C(C)(C)C)[C@@H](C(=O)O)N(C(=O)C2CCCCC2)[C@H]1c1ccccc1 [II-412],< 100,1000 to 10000,++ (≥150 and <350),1000 to 10000
COc1ccc(C(F)(F)F)cc1CN[C@@H]1[C@@H](C(C)(C)C)[C@@H](C(=O)O)N(C(=O)C2CCCCC2)[C@H]1c1ccccc1 [II-413],< 100,1000 to 10000,++ (≥150 and <350),1000 to 10000
COc1ccc(C(C)(C)C)cc1CN[C@H]1[C@H](C(C)(C)C)[C@@H](C(=O)O)N(C(=O)C(Oc2ccccc2C)C(C)C)[C@H]1c1ccccc1 (some centres unmarked) [II-415],> 200,1000 to 10000,+++ (≥350),< 1000
COc1cnc(-c2ccc(C)cc2F)cc1CN[C@H]1[C@H](C(C)(C)C)[C@@H](C(=O)O)N(C(=O)C2CCCCC2)[C@H]1c1ccccc1 [II-416],100 to 200,< 1000,+++ (≥350),< 1000
COc1cnc(-c2ccccc2F)cc1CN[C@H]1[C@H](C(C)(C)C)[C@@H](C(=O)O)N(C(=O)C2CCCCC2)[C@H]1c1ccccc1 [II-417],100 to 200,1000 to 10000,+++ (≥350),1000 to 10000

Compound,Emax [1] [%],EC50 [2] [nM],Maximum % activity (with co-corrector) [3],EC50 [4] [nM]
COc1cccc(-c2cc(CN[C@H]3[C@H](C(C)(C)C)[C@@H](C(=O)O)N(C(=O)C4CCCCC4)[C@H]3c3ccccc3)c(OC)cn2)c1 [II-418],< 100,1000 to 10000,+++ (≥350),1000 to 10000
COc1ccc(C(C)(C)C)cc1CN[C@H]1[C@H](C(C)(C)OC)[C@@H](C(=O)O)N(C(=O)OC(C)C)[C@H]1c1ccccc1 [II-419],> 200,1000 to 10000,+++ (≥350),1000 to 10000
COCC1(c2ccc(OC)c(CN[C@H]3[C@H](C(C)(C)C)[C@@H](C(=O)O)N(C(=O)C4CCCCC4)[C@H]3c3ccccc3)c2)CC1 [II-420],100 to 200,1000 to 10000,+++ (≥350),1000 to 10000
COc1ncc(C2(C)CC2(F)F)cc1CN[C@H]1[C@H](C(C)(C)C)[C@@H](C(=O)O)N(C(=O)C2CCCCC2)[C@H]1c1ccccc1 (some centres unmarked) [II-422],100 to 200,< 1000,+++ (≥350),< 1000
COc1ncc(-c2ccccc2)cc1CN[C@H]1[C@H](C(C)(C)C)[C@@H](C(=O)O)N(C(=O)C2CCCCC2)[C@H]1c1ccccc1F [II-423],100 to 200,< 1000,+++ (≥350),< 1000
COc1ncc(-c2ccccc2F)cc1CN[C@H]1[C@H](C(C)(C)C)[C@@H](C(=O)O)N(C(=O)C2CCCCC2)[C@H]1c1ccccc1F [II-424],100 to 200,< 1000,+++ (≥350),< 1000
COc1ncc(C(F)(F)F)cc1CN[C@H]1[C@H](C(C)(C)C)[C@@H](C(=O)O)N(C(=O)OC(C)C)[C@H]1c1ccccc1 [II-425],> 200,1000 to 10000,+++ (≥350),1000 to 10000
COc1nc(C(C)(C)C)ccc1CN[C@H]1[C@H](C(C)(C)C)[C@@H](C(=O)O)N(C(=O)Cc2ccccc2C)[C@H]1c1ccccc1C(C)C [II-427],> 200,< 1000,+++ (≥350),< 1000
COc1nc(C(C)(C)C)ccc1CN[C@H]1[C@H](C(C)(C)C)[C@@H](C(=O)O)N(C(=O)C2CCC(C)(C)C2)[C@H]1c1ccccc1 (some centres unmarked) [II-428],100 to 200,1000 to 10000,+++ (≥350),1000 to 10000
COc1nc(C(C)(C)C)ccc1CN[C@H]1[C@H](C(C)(C)C)[C@@H](C(=O)O)N(C(=O)Cc2ccccc2C)[C@H]1c1ccccc1 [II-429],100 to 200,< 1000,+++ (≥350),< 1000
COc1nc(C(C)(C)C)ccc1CN[C@H]1[C@H](C(C)(C)C)[C@@H](C(=O)O)N(C(=O)[C@H](OC)c2ccccc2)[C@H]1c1ccccc1 [II-433],100 to 200,< 1000,+++ (≥350),< 1000
COc1ncc(C(F)(F)F)cc1CN[C@H]1[C@H](C(C)(C)C)[C@@H](C(=O)O)N(C(=O)C2CCC(C)(C)O2)[C@H]1c1ccccc1 (some centres unmarked) [II-434],100 to 200,1000 to 10000,+++ (≥350),1000 to 10000
COc1ncc(C(F)(F)F)cc1CN[C@H]1[C@H](C(C)(C)C)[C@@H](C(=O)O)N(C(=O)C2CCc3ccc(F)cc3O2)[C@H]1c1ccccc1 (some centres unmarked) [II-435],< 100,1000 to 10000,++ (≥150 and <350),1000 to 10000
COc1ccc(C(F)(F)F)cc1CN[C@H]1[C@H](C(C)(C)OC)[C@@H](C(=O)O)N(C(=O)C2CCCCC2)[C@H]1c1cccnc1OC [II-436],100 to 200,1000 to 10000,+++ (≥350),1000 to 10000
COc1ccc(C(F)(F)F)cc1CN[C@H]1[C@H](C(C)(C)OC)[C@@H](C(=O)O)N(C(=O)C2CCCCC2)[C@H]1c1cccnc1N(C)C [II-437],> 200,1000 to 10000,+++ (≥350),1000 to 10000
C/C=C/CC(C/C=C/C)C(=O)N1[C@H](C(=O)O)[C@@H](C(C)(C)C)[C@H](NCc2cc(C(C)(C)C)ccc2OC)[C@@H]1c1ccccc1 [II-439],> 200,1000 to 10000,+++ (≥350),< 1000
COc1ncc(C2(C)CC2)cc1CN[C@H]1[C@H](C(C)(C)C)[C@@H](C(=O)O)N(C(=O)C2CCCCC2)[C@H]1c1ccccc1 [II-440],100 to 200,1000 to 10000,+++ (≥350),1000 to 10000
